Measured values from publication PMC11879040, “Advancing systemic toxicity risk assessment: Evaluation of a NAM-based toolbox approach” (Toxicological Sciences, 2024).
Values after ≈ are worked out from the molar mass of the structure shown. Read-outs that look alike come from different tables or passages of the source.

Experiments:
[1] = target: Voltage-dependent L-type Ca2+ channel (dihydropyridine site), CACNA1C (r) (Rattus norvegicus, UniProt P22002); type: binding
[2] = test system: Potassium Voltage-Gated Channel Kv non-selective, KCNQ1 (r); assay: IPP KCNQ1 binding (antagonist radioligand); design: species or system rat; conditions: control α-dendrotoxin
[3] = test system: Gamma-aminobutyric acid receptor subunit alpha-1 BZD site, GABRA1A (r); type: binding, rat
[4] = test system: Sodium channel protein type 5 subunit alpha (site 2), SCN5A (r); type: binding, rat
[5] = target: T1, Adenosine receptor A2a, ADORA2A (h) (Homo sapiens, UniProt P29274); assay: IPP ADORA2A binding (agonist radioligand); conditions: control NECA
T1 construct: purchased Eurofins Cerep (SafetyScreen44-based IPP panel)

[6] = test system: Thyroid hormone receptor alpha, THRA (h); assay: IPP THRA coactivator recruitment (agonist); type: biochemical, human; conditions: agonist, T3
Tubulin (r) = assay: IPP Tubulin binding; design: species or system rat; conditions: ligand/control Colchicine
HepG2 cells [7] = assay: Cell stress panel (CSP), 24 h, 8 concentrations, BIFROST global PoD; type: cell-based; conditions: for pod_cell_stress PoD: HepG2, cell stress panel PoD
Procedure: Compounds were tested using the previously developed cell stress panel ([Hatherell et al. 2020]) and the expanded biomarker panel outlined in Middleton et al. HepG2 cells were treated with all compounds for 24 h across 8 concentrations prior to biomarker analysis. The same plate layout and number of replicates (3 biological and 2 technical) were used as previously for each assay within the panel.

HepG2 cells [8] = assay: High-throughput transcriptomics (HTTr, TempO-Seq), HepG2, 24 h; type: cell-based, human; conditions: HepG2; for pod_httr_bifrost PoD: HTTr BIFROST PoD; for podl_path_minbmd PoD: HTTr minimum pathway BMD(L)
Procedure: (§1) HepG2, HepaRG, and MCF7 cells were treated with each compound for 24 h across a dose range of 7 concentrations and lysed using TempO-Seq lysis buffer (BioSpyder Technologies, proprietary kit, see [Middleton et al. 2022] for method details). Sequencing was performed using TempO-Seq (BioClavis) version 2 of the human whole transcriptome panel and analyzed as described previously in Middleton et al.

HepaRG cells = assay: High-throughput transcriptomics (HTTr, TempO-Seq), HepaRG, 24 h; type: cell-based, human; conditions: HepaRG; for pod_httr_bifrost PoD: HTTr BIFROST PoD; for podl_path_minbmd PoD: HTTr minimum pathway BMD(L)
Procedure: as §1

MCF7 cells = assay: High-throughput transcriptomics (HTTr, TempO-Seq), MCF7, 24 h; type: cell-based, human; conditions: MCF-7; for pod_httr_bifrost PoD: HTTr BIFROST PoD; for podl_path_minbmd PoD: HTTr minimum pathway BMD(L)
Procedure: as §1

[9] = test system: Glutamate receptor ionotropic NMDA 1 non-selective, GRIN1 (r)
[10] = human
[11] = human; remark: listed apart in the source
physchem [12] = conditions: pH 5.22, water
rat = conditions: cited from earlier work; for PoD (NOAEL): rat, ref ToxRefDB/Paul-Friedman et al. (2020)/regulatory opinions
[13] = cited from earlier work
[14] = target: T2, Estrogen receptor, ER1 (h) (Homo sapiens, UniProt P03372); assay: IPP ER1 coactivator recruitment (agonist); type: biochemical; conditions: estriol
T2 construct: purchased Eurofins Cerep (SafetyScreen44-based IPP panel)
T2 sequence (P03372 1-595): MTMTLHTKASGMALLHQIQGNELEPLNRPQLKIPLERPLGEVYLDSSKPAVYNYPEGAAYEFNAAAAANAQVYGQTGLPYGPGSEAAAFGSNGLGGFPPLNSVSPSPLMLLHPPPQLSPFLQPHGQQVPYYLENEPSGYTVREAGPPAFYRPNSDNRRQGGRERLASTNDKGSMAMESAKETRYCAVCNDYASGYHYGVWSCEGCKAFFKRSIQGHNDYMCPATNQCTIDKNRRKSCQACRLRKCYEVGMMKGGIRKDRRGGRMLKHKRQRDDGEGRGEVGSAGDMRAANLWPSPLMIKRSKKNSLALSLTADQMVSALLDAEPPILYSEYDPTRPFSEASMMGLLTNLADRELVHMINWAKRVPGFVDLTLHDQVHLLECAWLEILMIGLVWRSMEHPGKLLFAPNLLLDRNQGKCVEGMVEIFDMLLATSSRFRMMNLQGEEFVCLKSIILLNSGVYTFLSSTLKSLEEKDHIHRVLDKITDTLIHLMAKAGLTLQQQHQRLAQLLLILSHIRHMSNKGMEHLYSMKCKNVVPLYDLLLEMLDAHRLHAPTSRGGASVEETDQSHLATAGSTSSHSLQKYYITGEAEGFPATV

[15] = target: T2, Estrogen receptor, ER1 (h); assay: IPP ER1 coactivator recruitment (antagonist); type: biochemical; conditions: estriol
[16] = test system: 63 targets with known safety liabilities; assay: In vitro pharmacological profiling (IPP) panel, screening at 10 or 100 µM and dose response, minimum IC50/AC50; type: biochemical; conditions: lowest AC50 across IPP panel (systemic targets); cell_type -; read-out: ipp_lowest_ac50_systemic PoD
[17] = target: Potassium voltage-gated channel subfamily H member 2 hERG, KCNH2 (h) (Homo sapiens, UniProt Q12809)
dog = conditions: 52 weeks, ref ToxRefDB/Paul-Friedman et al. (2020)/regulatory opinions; cited from earlier work
[18] = target: 5-hydroxytryptamine receptor 2B, HTR2B (h) (Homo sapiens, UniProt P41595); assay: biochemical
physchem [19] = assay: physchem
[20] = PBK input, ref [11], cited from earlier work
[21] = Assignment of risk classifications to benchmark chemical-exposure scenarios; conditions: for risk: Oral, from table S1
[22] = IV bolus 100 mg solution, 20 renal transplant patients, validation, ref Lin et al. 1980
[23] = IV bolus 100 mg solution, uremic patients, validation, ref Odlind et al. 1986
[24] = Oral tablet 100 mg, fasted, uremic patients, calibration, ref Odlind et al. 1986
[25] = 100 uM, * denotes assay interference (2-Amino-6-chloro-4-nitrophenol, HC Red 3)

T1 sequence (P29274 whole entry): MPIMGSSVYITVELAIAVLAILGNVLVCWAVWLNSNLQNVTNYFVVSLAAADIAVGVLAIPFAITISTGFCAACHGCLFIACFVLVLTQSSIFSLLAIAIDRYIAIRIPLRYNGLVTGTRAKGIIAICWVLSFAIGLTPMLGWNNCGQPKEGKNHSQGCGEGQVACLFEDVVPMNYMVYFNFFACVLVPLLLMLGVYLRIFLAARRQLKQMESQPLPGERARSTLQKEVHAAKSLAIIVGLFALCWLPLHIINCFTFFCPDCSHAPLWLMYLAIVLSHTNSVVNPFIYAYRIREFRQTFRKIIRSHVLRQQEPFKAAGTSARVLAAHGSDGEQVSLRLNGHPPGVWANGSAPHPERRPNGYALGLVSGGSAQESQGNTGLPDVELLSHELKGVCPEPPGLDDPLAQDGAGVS
Sequence of Potassium voltage-gated channel subfamily H member 2 hERG, KCNH2 (h) (Q12809 whole entry): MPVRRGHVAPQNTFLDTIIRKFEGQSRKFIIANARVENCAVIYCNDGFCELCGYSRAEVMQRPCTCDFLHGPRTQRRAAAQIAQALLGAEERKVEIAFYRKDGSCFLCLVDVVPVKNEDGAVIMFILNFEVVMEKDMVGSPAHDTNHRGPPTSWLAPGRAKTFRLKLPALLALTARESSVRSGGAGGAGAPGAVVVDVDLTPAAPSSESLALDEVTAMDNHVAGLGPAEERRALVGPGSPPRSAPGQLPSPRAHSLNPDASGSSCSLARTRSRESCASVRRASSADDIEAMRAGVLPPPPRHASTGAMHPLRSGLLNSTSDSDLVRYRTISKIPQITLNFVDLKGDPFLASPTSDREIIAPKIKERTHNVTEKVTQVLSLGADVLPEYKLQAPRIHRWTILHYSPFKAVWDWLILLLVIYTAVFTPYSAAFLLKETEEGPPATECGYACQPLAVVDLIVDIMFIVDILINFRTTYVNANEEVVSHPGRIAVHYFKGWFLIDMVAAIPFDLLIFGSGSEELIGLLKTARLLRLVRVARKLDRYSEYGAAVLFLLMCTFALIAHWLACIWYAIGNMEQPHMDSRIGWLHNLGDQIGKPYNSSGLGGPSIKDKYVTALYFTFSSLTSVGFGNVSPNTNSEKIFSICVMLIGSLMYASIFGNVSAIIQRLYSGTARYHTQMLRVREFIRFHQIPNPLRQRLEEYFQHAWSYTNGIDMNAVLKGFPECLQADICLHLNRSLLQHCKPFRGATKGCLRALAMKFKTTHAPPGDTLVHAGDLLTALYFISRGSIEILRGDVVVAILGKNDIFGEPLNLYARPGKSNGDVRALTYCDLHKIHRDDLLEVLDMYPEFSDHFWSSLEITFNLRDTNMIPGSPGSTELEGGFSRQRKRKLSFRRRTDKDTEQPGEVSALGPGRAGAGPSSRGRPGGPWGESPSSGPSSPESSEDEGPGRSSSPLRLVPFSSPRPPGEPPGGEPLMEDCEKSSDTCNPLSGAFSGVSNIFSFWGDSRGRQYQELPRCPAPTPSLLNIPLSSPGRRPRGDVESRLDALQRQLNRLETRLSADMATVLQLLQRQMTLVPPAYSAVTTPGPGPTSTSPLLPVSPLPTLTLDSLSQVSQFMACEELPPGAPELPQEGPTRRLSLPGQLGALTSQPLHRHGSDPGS
Sequence of 5-hydroxytryptamine receptor 2B, HTR2B (h) (P41595 whole entry): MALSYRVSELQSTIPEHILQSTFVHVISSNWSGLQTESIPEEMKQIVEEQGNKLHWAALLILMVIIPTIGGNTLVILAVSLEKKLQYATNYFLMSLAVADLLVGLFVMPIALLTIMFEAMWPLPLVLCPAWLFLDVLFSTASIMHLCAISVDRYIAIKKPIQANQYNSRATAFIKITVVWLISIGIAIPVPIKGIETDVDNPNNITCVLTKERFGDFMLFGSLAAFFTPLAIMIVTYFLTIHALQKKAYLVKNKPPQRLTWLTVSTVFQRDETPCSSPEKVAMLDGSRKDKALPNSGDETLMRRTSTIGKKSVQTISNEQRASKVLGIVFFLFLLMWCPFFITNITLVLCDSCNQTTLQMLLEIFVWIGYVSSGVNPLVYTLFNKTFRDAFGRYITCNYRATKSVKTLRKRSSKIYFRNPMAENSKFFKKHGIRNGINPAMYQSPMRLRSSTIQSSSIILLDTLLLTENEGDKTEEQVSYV
Sequence of Voltage-dependent L-type Ca2+ channel (dihydropyridine site), CACNA1C (r) (P22002 whole entry): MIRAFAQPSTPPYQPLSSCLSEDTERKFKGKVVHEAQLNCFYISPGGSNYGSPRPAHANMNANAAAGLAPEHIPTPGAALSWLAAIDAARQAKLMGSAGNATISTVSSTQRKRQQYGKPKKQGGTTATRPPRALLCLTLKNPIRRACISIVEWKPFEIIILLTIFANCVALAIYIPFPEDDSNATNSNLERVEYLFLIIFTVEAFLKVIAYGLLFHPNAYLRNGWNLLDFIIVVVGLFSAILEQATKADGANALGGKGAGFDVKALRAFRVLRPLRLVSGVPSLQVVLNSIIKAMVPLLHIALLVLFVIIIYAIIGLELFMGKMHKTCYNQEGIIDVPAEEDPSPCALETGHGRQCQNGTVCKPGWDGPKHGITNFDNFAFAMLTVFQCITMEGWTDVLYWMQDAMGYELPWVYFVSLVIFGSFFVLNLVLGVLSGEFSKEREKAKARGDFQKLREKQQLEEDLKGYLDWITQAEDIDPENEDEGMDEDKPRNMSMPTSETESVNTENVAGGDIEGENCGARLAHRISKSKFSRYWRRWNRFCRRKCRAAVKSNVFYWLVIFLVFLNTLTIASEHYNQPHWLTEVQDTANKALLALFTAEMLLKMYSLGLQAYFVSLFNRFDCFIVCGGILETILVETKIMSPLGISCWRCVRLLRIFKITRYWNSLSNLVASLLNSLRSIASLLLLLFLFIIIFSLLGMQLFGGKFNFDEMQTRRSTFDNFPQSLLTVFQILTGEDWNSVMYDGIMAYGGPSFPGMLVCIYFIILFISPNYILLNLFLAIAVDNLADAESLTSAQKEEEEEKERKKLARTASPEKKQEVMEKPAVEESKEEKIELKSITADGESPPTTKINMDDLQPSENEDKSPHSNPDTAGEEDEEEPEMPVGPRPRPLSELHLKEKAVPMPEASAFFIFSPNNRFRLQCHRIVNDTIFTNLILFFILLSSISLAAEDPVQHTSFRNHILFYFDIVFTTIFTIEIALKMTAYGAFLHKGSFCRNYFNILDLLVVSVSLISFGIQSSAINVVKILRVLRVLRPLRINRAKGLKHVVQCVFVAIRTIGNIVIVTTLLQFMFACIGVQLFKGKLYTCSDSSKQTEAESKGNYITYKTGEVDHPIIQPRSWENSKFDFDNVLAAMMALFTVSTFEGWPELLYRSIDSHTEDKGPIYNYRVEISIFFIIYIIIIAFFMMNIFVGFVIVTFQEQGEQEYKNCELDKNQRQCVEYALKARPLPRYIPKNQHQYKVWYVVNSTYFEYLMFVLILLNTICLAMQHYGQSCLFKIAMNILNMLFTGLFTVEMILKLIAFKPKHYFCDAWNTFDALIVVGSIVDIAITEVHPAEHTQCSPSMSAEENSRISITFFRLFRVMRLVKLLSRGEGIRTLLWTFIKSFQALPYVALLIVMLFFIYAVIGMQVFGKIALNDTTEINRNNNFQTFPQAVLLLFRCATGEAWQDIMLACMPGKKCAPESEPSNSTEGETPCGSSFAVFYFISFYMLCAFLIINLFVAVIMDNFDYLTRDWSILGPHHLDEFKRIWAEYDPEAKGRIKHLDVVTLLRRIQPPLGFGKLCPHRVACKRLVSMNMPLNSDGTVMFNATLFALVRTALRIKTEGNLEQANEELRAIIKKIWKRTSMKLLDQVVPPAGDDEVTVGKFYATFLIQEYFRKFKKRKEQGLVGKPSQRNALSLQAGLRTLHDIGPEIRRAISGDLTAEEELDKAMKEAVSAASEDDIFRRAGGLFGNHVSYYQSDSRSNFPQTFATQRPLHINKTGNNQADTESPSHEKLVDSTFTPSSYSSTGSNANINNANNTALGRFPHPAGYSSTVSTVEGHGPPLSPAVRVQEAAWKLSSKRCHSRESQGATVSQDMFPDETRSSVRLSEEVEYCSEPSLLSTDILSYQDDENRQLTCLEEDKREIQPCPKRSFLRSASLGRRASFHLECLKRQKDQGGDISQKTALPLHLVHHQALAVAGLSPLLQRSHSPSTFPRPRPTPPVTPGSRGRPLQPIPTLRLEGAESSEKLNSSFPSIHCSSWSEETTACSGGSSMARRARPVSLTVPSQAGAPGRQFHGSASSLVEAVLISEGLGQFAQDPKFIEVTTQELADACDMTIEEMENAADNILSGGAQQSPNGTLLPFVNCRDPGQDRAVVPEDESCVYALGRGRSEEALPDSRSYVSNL

## Cn1cnc([N+](=O)[O-])c1Sc1ncnc2nc[nH]c12 [Azathioprine, 6-[(1-Methyl-4-nitro-1H-imidazol-5-yl)sulfanyl]-7H-purine]
[1]
  Specific binding: -9.0%
[2]; IPP screening at 10 uM
  Specific binding: 1.0%
[3]
  Specific binding: 17.2%
[4]
  Specific binding: -8.7%
[5]; IPP screening at 10 uM
  Specific binding: 38.3%
[6]; 10 uM
  IPP screening %, Coactivator recruitment: 3.0%
Tubulin (r); 10 uM
  IPP screening %, Specific binding: 6.0%
HepG2 cells [7]
  Bioactivity Observations: cell stress panel: The leading PoD is extrapolated below the lowest dose tested in the CSP
  pod_cell_stress PoD: 3.96e-05 µM
HepG2 cells [8]
  pod_httr_bifrost PoD: 0.01764 µM
  podl_path_minbmd PoD: 0.1634 µM
HepaRG cells
  pod_httr_bifrost PoD: 0.8426 µM
  podl_path_minbmd PoD: 3.742 µM
MCF7 cells
  pod_httr_bifrost PoD: 0.1265 µM
  podl_path_minbmd PoD: 0.2237 µM
[9]
  Specific binding: 4.2%
[10]
  risk: 1
[11]
  Intrinsic Liver Clearance: 4323.84 L/h
Physchem [12]
  solubility: 231 µg/mL (≈ 833 µM)
rat; 28 days, haematological changes
  PoD (NOAEL): 3 mg/kg bw/day
[13]; [22]
  Reported AUC0-t: 430 ng·h/mL
  Reported cmax: 0.9163 µg/mL
  Reported tmax: 0 min
[13]; [23]
  Reported AUC0-t: 1032.5 ng·h/mL
  Reported cmax: 0.7498 µg/mL
  Reported tmax: 7.524 min
[13]; [24]
  Reported AUC0-t: 100 ng·h/mL
  Reported cmax: 0.0478 µg/mL
  Reported tmax: 32.87 min

## CC1(C)C(C=C(Cl)Cl)C1C(=O)OC(C#N)c1cccc(Oc2ccccc2)c1 (stereo not drawn) [Cypermethrin, Cyano(3-phenoxyphenyl)methyl 3-(2,2-dichloroethenyl)-2,2-dimethylcyclopropane-1-carboxylate]
[2]; IPP screening at 10 uM
  Specific binding: 0.9%
[3]; IPP screening at 10 uM, control diazepam
  Specific binding: 5.5%
[4]; IPP screening at 10 uM, control veratridine
  Specific binding: -112.7%
[5]; IPP screening at 10 uM
  Specific binding: 0.1%
[14]; 10 uM
  IPP screening %, Coactivator recruitment: 0.0%
[15]; 10 uM
  IPP screening %, Coactivator recruitment: 0.0%
[6]; 10 uM
  IPP screening %, Coactivator recruitment: 0.0%
Tubulin (r); 10 uM
  IPP screening %, Specific binding: 8.0%
HepG2 cells [7]
  pod_cell_stress PoD: 7.881 µM
HepG2 cells [8]
  pod_httr_bifrost PoD: 2.669 µM
  podl_path_minbmd PoD: 2.638 µM
HepaRG cells
  pod_httr_bifrost PoD: 4.402 µM
  podl_path_minbmd PoD: 35.2754 µM
MCF7 cells
  pod_httr_bifrost PoD: 8.9686 µM
  podl_path_minbmd PoD: 25.4106 µM
[16]
  AC50: 490 nM
[9]; IPP screening at 10 uM, control CGS 19755
  Specific binding: 11.4%
[17]; 10 uM, [3H] Dofetilide, control Terfenadine
  IPP screening %, Specific binding: 22.7%
rat; rat chronic study, route of administration not reported, ref not given
  Lowest NOAEL: Lowest NOAEL is 0.5 mg/kg from a rat chronic study, but the route of administration isn't reported. 1 mg/kg/day is NOAEL from 52 week dog study
dog
  PoD (NOAEL): 1 mg/kg bw/day
[18]
  IC50: > 570 nM

## CC(C)[C@H](N)C(=O)O [L-valine, L-Valine]
[2]; IPP screening at 100 uM
  Specific binding: 15.0%
[3]; IPP screening at 100 uM, control diazepam
  Specific binding: 1.9%
[4]; IPP screening at 100 uM, control veratridine
  Specific binding: 12.2%
[5]; IPP screening at 100 uM
  Specific binding: -4.2%
[14]; [25]
  IPP screening %, Coactivator recruitment: 0.0%
[15]; [25]
  IPP screening %, Coactivator recruitment: -2.0%
[6]; [25]
  IPP screening %, Coactivator recruitment: 2.0%
Tubulin (r); 100 uM
  IPP screening %, Specific binding: 2.0%
HepG2 cells [7]
  pod_cell_stress PoD: 39.7854 µM
HepG2 cells [8]
  pod_httr_bifrost PoD: 316.528 µM
  podl_path_minbmd PoD: 625 µM
HepaRG cells
  pod_httr_bifrost PoD: 162.177 µM
  podl_path_minbmd PoD: 351.712 µM
MCF7 cells
  pod_httr_bifrost PoD: 26.9475 µM
  podl_path_minbmd PoD: 43.6766 µM
[9]; IPP screening at 100 uM, control CGS 19755
  Specific binding: 0.4%
[17]; human
  IPP screening %, Specific binding: -3.8%
Physchem [19]
  logP: -2.21
rat; repeat dose
  PoD (NOAEL): 666 mg/kg bw/day
[20]; level L2
  pKa Value ACID: 2.3
[20]; levels L2/L3
  pKa Value BASE: 9.55
[21]; Oral 26 mg/kg bw/day
  Risk Classification: Low risk
[21]; Oral 4000 mg/day
  Risk Classification: Low risk
[21]; 26 mg/kg mean requirements, Tablet, Exp1
  risk: 0
[21]; Dietary 4000 mg/day, Food & Drink, Exp2
  risk: 0
